{
  "source": "paper PMC10010340",
  "about": "“The Wnt Pathway Inhibitor RXC004 Blocks Tumor Growth and Reverses Immune Evasion in Wnt Ligand–dependent Cancer Models” (Cancer Research Communications, 2022)",
  "key": {"Hepatocyte stability": {"experiment": "Hepatocyte stability", "format": "in vitro ADME", "conditions": "Human, 1 μmol/L", "protocol": "Metabolic stability: liver microsomes and hepatocytes from human, mouse (CD1), rat (Sprague Dawley) and dog (Beagle) were obtained from Invitrogen. RXC004 (1 μmol/L) was incubated at 37°C with microsomes (0.5 mg · mL^−1) or hepatocytes (0.5 × 10^6 cells · mL^−1). Aliquots were removed at 0–45 minutes and RXC004 concentrations determined by LC/MS-MS analysis. Half-life (T1/2) and intrinsic clearance (CLint) were calculated as described in ref. [18]."}, "In vivo pharmacokinetics": {"experiment": "In vivo pharmacokinetics", "parameters": "species or system mouse (male CD1)", "conditions": "mouse", "protocol": "In vivo pharmacokinetics: RXC004 was dosed to male Sprague Dawley rats, male CD1 mice or dog (beagle) by intravenous and oral routes. Bioanalysis of blood and plasma samples was performed by LC/MS-MS using a Waters TQS or TQMS mass spectrometer. Pharmacokinetic information was derived using WinNonlin software (Certara)."}, "SNU-1411 xenograft [1]": {"system": "SNU-1411 xenograft", "experiment": "Xenograft pilot study", "format": "in vivo, mouse (NOD-SCID)", "conditions": "SNU-1411, 1.5 mg/kg twice daily oral", "protocol": "The in vivo pilot studies were performed at Axis Bioservices. HPAF-II (5 × 10^6 cells; athymic nude mice), AsPC1 (3 × 10^6 cells; athymic nude mice), and SNU-1411 (1 × 10^7 cells; NOD-SCID mice) were implanted bilaterally, subcutaneously, whereas HCT116 (3 × 10^6 cells; athymic nude mice) were implanted in a single flank. Animals were randomized into the indicated groups and treatment initiated once tumor volumes reached approximately 100–150 mm^3. Dosing was either 1.5 mg/kg twice daily RXC004 for 7–13 days then once daily for the remainder of study (up to 29 days), or 28 days 1.5 mg/kg twice daily RXC004 for HCT116. In these and all other animal studies, unless otherwise specified, RXC004 was dosed orally in 0.5% carboxymethylcellulose + 0.1% Tween-80. For AsPC1, an ascites model, end of study tumor weight (mg) was measured. A total of 12 hours after the final dose, RNA was extracted [GenElute RNA isolation kit (#RTN70, Sigma)] from snap frozen tumor for qRT-PCR expression analysis of Axin2, c-Myc, RNF43, MUC4, and MUC5AC relative to appropriate housekeepers."}, "[2]": {"experiment": "Pharmacokinetic/pharmacodynamic analysis in SNU-1411/NOD-SCID mice, 7 days", "format": "in vivo, mouse (NOD-SCID)", "conditions": "NOD-SCID, mouse, plasma, oral; 20 ng/mL equivalent to 10× IC50; read-out: total plasma concentration equivalent to free IC50", "protocol": "(§1) To explore dose–response effects in vivo, SNU-1411 (1 × 10^7 cells) were implanted into NOD-SCID mice subcutaneously at Axis Bioservices. Animals were randomized into the indicated groups and oral dosing of RXC004 was initiated when tumors reached approximately 200 mm^3. Tumor volume measurements were taken at day 19, n ≥9 per group. Pharmacokinetic/pharmacodynamic analysis in SNU1411/NOD-SCID mice was performed in a separate study at Axis Biosciences, with tissue and plasma extracted for assessments after 7 days of RXC004 dosing. Tumor was divided into two sections; one section snap frozen and the other processed by FFPE. RXC004 levels were determined in snap frozen tumor and blood samples by LC/MS-MS. Expression analysis of the indicated genes was performed on snap frozen tumor as described above. Serial FFPE tumor sections were stained with H&E, anti-Ki67 (Abcam #Ab15580) or the dual mucin stain Alcian-blue/periodic acid shift (AB-PAS) at Histologix. IHC images were quantified using HALO software and modules (Indica Labs). The AB-PAS images were analyzed with the area quantification module on tumor area. A classifier was trained to detect differentiated and nondifferentiated tumor areas in RXC004-treated tumors using the AB-PAS–stained slides. Image registration was used to assign annotations from AB-PAS images to Ki67 images. The Ki67 images were analyzed with the multiplex IHC module and number of Ki67-positive cells were determined per mm^2 of total or differentiated tumor area."}, "SNU-1411 xenograft [3]": {"system": "SNU-1411 xenograft", "experiment": "Pharmacokinetic/pharmacodynamic analysis in SNU-1411/NOD-SCID mice, 7 days", "format": "in vivo, mouse (NOD-SCID)", "protocol": "as §1"}, "SNU-1411 xenograft [4]": {"system": "SNU-1411 xenograft", "experiment": "SNU-1411 tumor reimplantation study", "format": "in vivo, mouse (NOD-SCID)", "conditions": "prior treatment 5 mg/kg once daily, 9 days; versus vehicle pretreated", "protocol": "The reimplantation study was performed at Sygnature Discovery. SNU-1411–implanted NOD-SCID mice were dosed orally with RXC004 (5 mg/kg, once daily) once tumors reached an average size of 350 mm^3. After 9 days treatment, tumors were resected and equivalent viable tumor fragments from each tumor were reimplanted into separate naïve NOD-SCID mice, tumor volume was assessed at various subsequent timepoints."}, "[5]": {"system": "HPAF-II cells cocultured with human PBMCs", "experiment": "HPAF-II / human PBMC coculture", "format": "cell-based", "conditions": "HPAF-II pretreated 100 nmol/L, 3 days", "protocol": "HPAF-II cells were incubated for 3 days with RXC004 (100 nmol/L) or DMSO control, washed and detached using Accutase and equal number of viable cells (as assessed by Trypan Blue exclusion) per treatment were reseeded in 96-well plates. Frozen human peripheral blood mononuclear cells (PBMC), originally collected by density gradient separation using Histopaque from four healthy donors, were thawed and cultured in complete media. After approximately 40 hours, nonadherent PBMCs were added to coculture with the HPAF-II cells, at a PBMC:HPAF-II ratio of 5:1. T-cell proliferation and cytokine production was stimulated using Immunocult CD3/CD28-tetramer (Stemcell Technologies #10971). For monoculture nonadherent PBMC experiments, T cells were stimulated using Immunocult in the presence or absence of recombinant Wnt3a (Biotechne #5036-WN-010) and/or recombinant Wnt5a (Biotechne #645-WN-010), both at 100 ng/mL. After 5 days, supernatants from monoculture or coculture experiments were removed for analysis, whereas suspension cells were fixed, stained with anti-Ki67 (BD #563462), anti-CD4 (BioLegend #317420), and anti-CD8 (BD #564116) antibodies, before flow cytometry was performed on a Novocyte flow cytometer. Cytokines and chemokines in the supernatant were quantified using a 30-plex panel on Magpix (Thermo Fisher Scientific #LHC6003M) or ELISA for IFNγ (R&D Systems # DY285B-05)."}, "[6]": {"conditions": "male, CD1, in vivo, po, 5 mg/kg p.o."}},
  "data": [
    {"compound": "Cc1c(-c2ccnc(C(F)(F)F)c2)ncn1CC(=O)Nc1ccc(-c2cnccn2)cn1", "note": "[RXC004, 2-[5-methyl-4-[2-(trifluoromethyl)-4-pyridyl]imidazol-1-yl]-N-(5-pyrazin-2-yl-2-pyridyl)acetamide]", "values": [
      {"measurement": "Hepatocyte stability: CLint", "setting": "Hepatocyte stability", "result": "<3.0 μL minute^−^1 · 10^6 cells^−^1"},
      {"measurement": "clearance", "setting": "In vivo pharmacokinetics; male, CD1, in vivo, intravenous, 2 mg/kg, dose i.v./p.o. 2/5 mg/kg", "result": 2.9, "unit": "mL/min/kg"},
      {"measurement": "Vd", "setting": "In vivo pharmacokinetics; male, CD1, in vivo, intravenous, 2 mg/kg, dose i.v./p.o. 2/5 mg/kg, read-out: Vss", "result": 0.4, "unit": "L/kg"},
      {"measurement": "AUC(0-inf)", "setting": "In vivo pharmacokinetics; [6]", "result": 33.9, "unit": "µM·h"},
      {"measurement": "Cmax", "setting": "In vivo pharmacokinetics; [6]", "result": 7.6, "unit": "µM"},
      {"measurement": "concentration at 24 h", "setting": "In vivo pharmacokinetics; male, CD1, in vivo, po, 5 mg/kg p.o., read-out: C24h (p.o.)", "result": 0.002, "unit": "µM"},
      {"measurement": "half-life", "setting": "In vivo pharmacokinetics; male, CD1, in vivo, dose i.v./p.o. 2/5 mg/kg, read-out: T½ (converted)", "result": 1.8, "unit": "h"},
      {"measurement": "F (p.o.)", "setting": "In vivo pharmacokinetics; dose i.v./p.o. 2/5 mg/kg", "result": 48, "unit": "%"},
      {"measurement": "Wnt-responsive gene expression in tumor including c-Myc", "setting": "SNU-1411 xenograft [1]", "result": "inhibition of Wnt-responsive gene expression"},
      {"measurement": "tumor growth", "setting": "SNU-1411 xenograft [1]", "result": "reduction in tumor growth"},
      {"measurement": "IC50", "setting": "[2]", "result": 2, "unit": "ng/mL"},
      {"measurement": "c-Myc gene expression in tumor", "setting": "SNU-1411 xenograft [3]; 1.5 or 5 mg/kg once daily, 7 days", "result": "Inhibition of c-Myc gene expression in tumor"},
      {"measurement": "tumor differentiation and mucin levels (Alcian-blue/PAS)", "setting": "SNU-1411 xenograft [3]; intermediate effects at 1.5 mg/kg once daily, stronger at 5 mg/kg once daily", "result": "increased tumor differentiation and increased mucin levels"},
      {"measurement": "dose proportionality of levels in plasma and tumor", "setting": "SNU-1411 xenograft [3]; oral 1.5 or 5 mg/kg once daily, 7 days", "result": "good dose proportionality"},
      {"measurement": "Ki67-positive cells in tumor", "setting": "SNU-1411 xenograft [3]; total tumor area, more significantly in differentiated tumor", "result": "Ki67-positive cells were reduced"},
      {"measurement": "tumor growth after reimplantation into naïve untreated mice", "setting": "SNU-1411 xenograft [4]", "result": "prolonged impact on tumor growth"},
      {"measurement": "HPAF-II inhibition of T-cell proliferation and IFNγ/GMCSF release", "setting": "[5]", "result": "fully reversed"},
      {"measurement": "release of CXCL9", "setting": "[5]", "result": "potentiated the HPAF-II–dependent release of the chemokine CXCL9"},
      {"measurement": "secretion of VEGF", "setting": "[5]", "result": "reducing the HPAF-II–dependent secretion of the angiogenesis promoting growth factor VEGF"}
    ]}
  ]
}
